For series [1], the system named is Staphylococcus aureus (ATCC 29213). Put plainly: Disc zone of inhibition on agar plates coated with S. aureus. In kind it is cell-based. As to conditions: for zone of inhibition: disc containing 5 μg, agar plates coated with S. aureus ATCC 29213, 35° C. for 24 hours. The method, then: The ability of the compound of Formula II to inhibit growth of Staphylococcus aureus (ATCC 29213) was determined in vitro. Briefly, agar plates were coated with S. aureus and discs containing 5 μg of rifampin and 5 μg of a compound of Formula II were placed on the coated plates. The plates were incubated at 35° C. for 24 hours and the zones of inhibition of the rifampin and the compound of Formula II were determined. The zone of inhibition for the rifampin loaded disc was 28 mm. The zone of inhibition for the disc with a compound of Formula II was 18 mm.

For series [2] the test system is unchanged. Put plainly: Minimum Inhibitory Concentration (MIC) evaluation. As to conditions: ATCC29213, S. aureus, in vitro, read-out: Baseline MIC. The class given is cell-based.
The conditions of series [3]: after five EtO sterilization cycles; polymeric articles; cited from earlier work.

The source of these data is patent publication US7935705B2, “N-alkylated rifampin” (Medtronic, Inc., priority 2007, dated 2011).

As usually defined, the zone of inhibition is the size of the clear area around the sample on an inoculated plate. A lower zone of inhibition goes with a weaker effect on the plate. The term MIC denotes the lowest concentration that inhibits growth of the organism.

In the case of `COC1/C=C/OC2(C)Oc3c(C)c(O)c4c(O)c(c(/C=N/N5CC[N+](C)(CC[O-])CC5)c(O)c4c3C2=O)NC(=O)/C(C)=C\C=C\C(C)C(O)C(C)C(O)C(C)C(OC(C)=O)C1C` (centres unmarked) [compound of Formula II], the zone of inhibition in series [1] was determined as 18 mm. The “activity against Staphlococcus aureus” value in series [1] (qualitative statement in summary) is given as “has activity”. In series [2], the MIC is 2 to 4 µg/mL.

In the case of “5,6,9,17,19,21-Hexahydroxy-23-methoxy-2,4,12,16,18,20,22-heptamethyl-8-[N-(4-methyl-1-piperazinyl)formimidoyl]-2,7-(epoxypentadeca[1,11,13]trienimino)-naphtho[2,1-b]furan-1,11(2H)-dione 21-acetate [rifampin]”, in series [1], the zone of inhibition came out at 28 mm. Moreover, in series [3], the rifampin recoverable is on record as 5%.
